Measurements reported in patent US20230414626A1, “INDUCTION OF FERROPTOSIS FOR CANCER THERAPY” (Memorial Sloan Kettering Cancer Center, priority 2020, published 2023).

Assays:
[1] = system: PI3K-mutated BT474 breast cancer xenograft tumors; test: In vivo xenograft mouse model, GPX4-iKO BT474; conditions: nu/nu mice, CCI-779 2 mg/kg daily i.p., Dox diet induces GPX4 knockout
Experimental: FIG. 6 A-F. Combination of mTORC1 inhibition with ferroptosis induction leads to tumor regression in vivo. (A) CRISPR/Cas9-mediated, Dox-induced GPX4 knockout (GPX4-iKO) in BT474 cells, monitored by western blot. (B) Images of resected tumors from mice xenografted with GPX4-iKO BT474 cells. Groups of mice were treated with CCI-779 and/or Dox as indicated (n=6 per group). See Methods for detail. (C) Representative haematoxylin and eosin (H&E) and immunostaining images of GPX4, Ki67, PTGS2 and pS235/236 S6, all counterstained with haematoxylin (blue), are shown from sections of xenografted tumors. Scale bar, 50 μm. (D) Growth curves of BT474 tumors of each group. […]
FIG. 13 A-E. Combination of mTORC1 inhibition with ferroptosis induction leads to tumor regression. […] (B) BT474 tumor volume was measured every day for each mouse. […] (E) PC-3 tumor volume was measured every day for each mouse. […]
17-β-estradiol 60-day release pellets were implanted subcutaneously into the left flank 7 days before tumor inoculation. […] Tumor growth was monitored regularly via external caliper measurements. […] The maximum width (X) and length (Y) of the tumor were measured every day and the volume (V) was calculated using the formula: V=(X2Y)/2. Tumor growth was monitored over time. For all experiments, mice were sacrificed at a pre-determined endpoint. […]

NRF2 = test: Western blot of NRF2; assay type: cell-based, human; conditions: BT474 cells, 8 h; RSL3 0.5 μM; Torin 1 μM
Experimental: FIG. 3 A-E. NRF2 is not the major mediator of the ferroptosis-suppressing activity of mTORC1. (A) BT474 cells were treated as indicated for 8 h. RSL3, 0.5 μM; Torin, 1 μM. Western blot was performed to measure […], total S6K and NRF2. (B) NRF2 was depleted by CRISPR/Cas9 technology in HT1080 cells. NRF2 level was measured by western blot. (C) Control or NRF2-depleted cells were treated as indicated. Erastin, 0.5 μM; RSL3, 25 nM. (D) HepG2 cells with or without NRF2 depletion were treated with cysteine starvation with or without CCI-779 (0.5 μM) as indicated. Sytox Green were added after 48 h for cell death staining (scale bar, 100 m). (E) PC-3 cells with or without NRF2 depletion were treated with cysteine starvation with or without CCI-779 (0.5 μM) as indicated. Sytox Green were added after 48 h for cell death staining (scale bar, 100 m).
Cell lysates were resolved on SDS-PAGE gels and transferred to a nitrocellulose membranes. The membranes were incubated in 5% skim milk for 1 hour at room temperature and then incubated with primary antibodies diluted in blocking buffer at 4° C. overnight. […]

| SMILES | tumor growth [1] | RSL3-induced NRF2 accumulation (NRF2) |
| --- | --- | --- |
| CO[C@H]1C[C@@H]2CC[C@@H](C)[C@@](O)(O2)C(=O)C(=O)N2CCCC[C@H]2C(=O)O[C@H]([C@H](C)C[C@@H]2CC[C@@H](OC(=O)C(C)(CO)CO)[C@H](OC)C2)CC(=O)[C@H](C)/C=C(\C)[C@@H](O)[C@@H](OC)C(=O)[C@H](C)C[C@H](C)/C=C/C=C/C=C/1C [CCI-779, Temsirolimus] | decelerated tumor growth | – |
| CCC(=O)N1CCN(c2ccc(-n3c(=O)ccc4cnc5ccc(-c6cnc7ccccc7c6)cc5c43)cc2C(F)(F)F)CC1 [Torin] | – | ablated |
